Test results as given in patent US20090069408A1, “TRICYCLIC COMPOUNDS USEFUL IN TREATING IRON DISORDERS” (XENON PHARMACEUTICALS INC., priority 2007, published 2009).
Counter-ions that a name gives are not always drawn.

biological target: T1, DMT1 (Homo sapiens, UniProt P49281); test: DMT1 Activity Assay (in vitro); format: cell-based; conditions: read-out: IC50 Activity Level
T1 sequence (P49281 1-568): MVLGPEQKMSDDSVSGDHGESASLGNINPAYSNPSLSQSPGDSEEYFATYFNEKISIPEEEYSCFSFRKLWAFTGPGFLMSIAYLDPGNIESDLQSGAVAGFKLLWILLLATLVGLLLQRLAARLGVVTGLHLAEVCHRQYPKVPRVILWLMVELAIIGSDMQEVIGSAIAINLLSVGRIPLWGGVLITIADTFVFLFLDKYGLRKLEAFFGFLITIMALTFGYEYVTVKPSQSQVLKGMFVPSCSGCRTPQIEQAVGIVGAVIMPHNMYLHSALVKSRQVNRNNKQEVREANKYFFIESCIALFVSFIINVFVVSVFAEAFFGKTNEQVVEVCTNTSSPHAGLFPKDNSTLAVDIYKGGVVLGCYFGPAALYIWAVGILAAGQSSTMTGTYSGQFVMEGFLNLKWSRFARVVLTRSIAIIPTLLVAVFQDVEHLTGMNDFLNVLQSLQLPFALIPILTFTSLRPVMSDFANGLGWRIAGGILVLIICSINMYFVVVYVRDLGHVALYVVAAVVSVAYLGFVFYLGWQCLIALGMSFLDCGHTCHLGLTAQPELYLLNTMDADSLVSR
Text: In particular, identification of the compounds of the invention ability to modulate, preferably to inhibit, DMT1 activity, can be assessed using a variety of in vitro and in vivo assays, for measuring uptake of reduced iron (Fe^2+). One such protocol involves the screening of chemical agents for ability to modulate the activity of DMT1 thereby identifying it as a modulating agent. The in vitro activity of DMT1 can be measured in cell based assays by either directly measuring iron flux (using a radioactively labelled iron ^55Fe) or by measuring the fluorescence of a cell permeable iron fluorophore such as calcein. Stable cell lines overexpressing DMT1 are exposed to ^55Fe or loaded with calcein and then compound is applied. […] Alternatively, in another format electrophysiological techniques can be used to measure the current or iron or other metals traversing the cell membrane with DMT1 in a Xenopus oocyte or other cell based system (Gunshin et al., Nature, 1997, 31; 388(6641):482-8).
This example discloses various in vitro assay for testing and profiling test agents against DMT1 stably expressed in cells of either an endogenous or recombinant origin. These assays can use stable cell lines overexpressing DMT1 or intestinal cells and intestinal tissue expressing endogenous DMT1. DMT1 function could also be assessed in other cell types that express DMT1. Of greatest relevance would be the erythrocytes (e.g. K562 cells) or hepatocytes (e.g. […]).
DMT1 function can be assessed in a number of ways, including monitoring fluorescence changes of an iron fluorophore (e.g. calcein), monitoring uptake of radiolabelled iron (^55Fe or ^59Fe) (Picard et al., J. Biol. Chem., 2000, 275(46):35738-45 and Wetli et al., Chem. Biol. 2006 September; 13(9):965-72), or by assessing the current or transport of iron and other metals into the cells or tissues using standard electrophysiological techniques (Gunshin et al., Nature, 1997, 388(6641):482-8.).
Variations of these assays involve alterations of incubation times, the iron status of the cells and tissues (which may be modulated by chemical chelators or by harvesting from iron deficient animals), the metal cation detected and the pH of the reaction can generally be made by conventional techniques known to those skilled in the art.

Row | Compound | IC50
1 | N=C(N)SCc1cccc2c1oc1c(CSC(=N)N)cccc12 [Example 1.8, dibenzo[b,d]furan-4,6-diylbis(methylene) dicarbamimidothioate dihydrobromide] | 10 to 100 nM
2 | Cc1ccc2c(oc3c(CSC(=N)N)c(C)ccc32)c1CSC(=N)N [Example 1.3, (3,7-dimethyldibenzo[b,d]furan-4,6-diyl)bis(methylene) dicarbamimidothioate dihydrobromide] | 100 to 1000 nM
3 | N=C(N)SCc1cccc2c1sc1c(CSC(=N)N)cc(F)cc12 [Example 1.10, (2-fluorodibenzo[b,d]thiophene-4,6-diyl)bis(methylene) dicarbamimidothioate dihydrobromide] | 100 to 1000 nM
4 | N=C(N)SCc1c(F)ccc2c1oc1c(CSC(=N)N)c(F)ccc12 [Example 1.4, (3,7-difluorodibenzo[b,d]furan-4,6-diyl)bis(methylene) dicarbamimidothioate dihydrobromide] | 10 to 100 nM
5 | N=C(N)SCc1c(Br)ccc2c1oc1c(CSC(=N)N)c(Br)ccc12 [Example 1.13, (3,7-dibromodibenzo[b,d]furan-4,6-diyl)bis(methylene) dicarbamimidothioate dihydrobromide] | 100 to 1000 nM
6 | N=C(N)SCc1cccc2c1sc1c(CSC(=N)N)cccc12 [Example 1, dibenzo[b,d]thiophene-4,6-diylbis(methylene) dicarbamimidothioate dihydrobromide] | 100 to 1000 nM
7 | N=C(N)SCc1c(Br)ccc2c1sc1c(CSC(=N)N)c(Br)ccc12 [Example 1.1, (3,7-dibromodibenzo[b,d]thiophene-4,6-diyl)bis(methylene) dicarbamimidothioate dihydrobromide] | 100 to 1000 nM
8 | CC(C)(C)c1cc(CSC(=N)N)c2c(c1)C(C)(C)c1cc(C(C)(C)C)cc(CSC(=N)N)c1O2 [Example 4, (2,7-di-tert-butyl-9,9-dimethyl-9H-xanthene-4,5-diyl)bis(methylene) dicarbamimidothioate dihydrobromide] | ≥ 1000 nM
9 | N=C(N)SCc1c(Cl)ccc2c1oc1c(CSC(=N)N)c(Cl)ccc12 [Example 1.5, (3,7-dichlorodibenzo[b,d]furan-4,6-diyl)bis(methylene) dicarbamimidothioate] | 100 to 1000 nM
10 | N=C(N)SCc1cccc2c(=O)c3cccc(CSC(=N)N)c3oc12 [Example 1.16, (9-oxo-9H-xanthene-4,5-diyl)bis(methylene) dicarbamimidothioate dihydrobromide] | ≥ 1000 nM
11 | N=C(N)SCc1cccc2c1C(=O)c1c(CSC(=N)N)cccc1-2 [Example 2, (9-oxo-9H-fluorene-1,8-diyl)bis(methylene) dicarbamimidothioate dihydrobromide] | 100 to 1000 nM
12 | Cc1c2cccc(CSC(=N)N)c2nc2c(CSC(=N)N)cccc12 [Example 1.17, (9-methylacridine-4,5-diyl)bis(methylene) dicarbamimidothioate dihydrobromide] | ≥ 1000 nM
13 | N=C(N)SCc1cc(F)cc2c1sc1c(CSC(=N)N)cc(Cl)cc12 [Example 1.11, (2-chloro-8-fluorodibenzo[b,d]thiophene-4,6-diyl)bis(methylene) dicarbamimidothioate dihydrobromide] | 10 to 100 nM
14 | N=C(N)SCc1ccc(CSC(=N)N)c2c1-c1c(CSC(=N)N)ccc(CSC(=N)N)c1-2 [Example 3, biphenylene-1,4,5,8-tetrayltetrakis(methylene) tetracarbamimidothioate tetrahydrobromide] | 100 to 1000 nM
15 | N=C(N)SCc1cccc2c1-c1c(CSC(=N)N)cccc1-2 [Example 2.1, biphenylene-1,8-diylbis(methylene)dicarbamimidothioate dihydrobromide] | 10 to 100 nM
16 | N=C(N)SCc1cccc2cc3cccc(CSC(=N)N)c3nc12 [Example 1.18, acridine-4,5-diylbis(methylene) dicarbamimidothioate dihydrobromide] | 100 to 1000 nM
17 | N=C(N)SCc1cccc2cc3cccc(CSC(=N)N)c3cc12 [Example 1.9, anthracene-1,8-diylbis(methylene) dicarbamimidothioate dihydrobromide] | 100 to 1000 nM
18 | N=C(N)SCc1cc(F)cc2c1-c1c(CSC(=N)N)cc(F)cc1-2 [Example 5, (3,6-difluorobiphenylene-1,8-diyl)bis(methylene) dicarbamimidothioate dihydrobromide] | 10 to 100 nM
19 | N=C(N)SCc1cccc2c1-c1c(cccc1CSC(=N)N)CSC2 [Example 1.19, (5,7-dihydrodibenzo[c,e]thiepine-1,11-diyl)bis(methylene) dicarbamimidothioate dihydrobromide] | ≥ 1000 nM
20 | N=C(N)SCc1cccc2sc3cccc(CSC(=N)N)c3c12 [Example 1.14, dibenzo[b,d]thiophene-1,9-diylbis(methylene) dicarbamimidothioate dihydrobromide] | ≥ 1000 nM
21 | N=C(N)SCc1cccc2c1oc1c(CSC(=N)N)cc(F)cc12 [Example 1.6, (2-fluorodibenzo[b,d]furan-4,6-diyl)bis(methylene) dicarbamimidothioate dihydrobromide] | 10 to 100 nM
22 | N=C(N)SCc1cccc2c1Oc1c(CSC(=N)N)cccc1S2 [Example 1.12, phenoxathiine-4,6-diylbis(methylene) dicarbamimidothioate dihydrobromide] | 100 to 1000 nM
23 | N=C(N)SCc1cccc2c1-c1c(CSC(=N)N)cccc1C2=O [Example 1.15, (9-oxo-9H-fluorene-4,5-diyl)bis(methylene) dicarbamimidothioate dihydrobromide] | ≥ 1000 nM
24 | N=C(N)SCc1cccc2c1sc1c(CSC(=N)N)c(Br)ccc12 [Example 1.2, (3-bromodibenzo[b,d]thiophene-4,6-diyl)bis(methylene) dicarbamimidothioate dihydrobromide] | 100 to 1000 nM
25 | N=C(N)SCc1cc(Br)cc2c1oc1c(CSC(=N)N)cc(Br)cc12 [Example 1.7, (2,8-dibromodibenzo[b,d]furan-4,6-diyl)bis(methylene) dicarbamimidothioate dihydrobromide] | 10 to 100 nM

test system: not given; test: not given; conditions: not given

Row | Compound | melting point
26 | N=C(N)SCc1cccc2c1Oc1c(CSC(=N)N)cccc1S2 (as salt: hydrobromid) [Example 1.12, phenoxathiine-4,6-diylbis(methylene) dicarbamimidothioate dihydrobromide] | > 230 °C
27 | N=C(N)SCc1cccc2c1-c1c(cccc1CSC(=N)N)CSC2 (as salt: hydrobromid) [Example 1.19, (5,7-dihydrodibenzo[c,e]thiepine-1,11-diyl)bis(methylene) dicarbamimidothioate dihydrobromide] | 155 to 158 °C
28 | N=C(N)SCc1cc(Br)cc2c1oc1c(CSC(=N)N)cc(Br)cc12 (as salt: hydrobromid) [Example 1.7, (2,8-dibromodibenzo[b,d]furan-4,6-diyl)bis(methylene) dicarbamimidothioate dihydrobromide] | > 220 °C
29 | N=C(N)SCc1cccc2c(=O)c3cccc(CSC(=N)N)c3oc12 (as salt: hydrobromid) [Example 1.16, (9-oxo-9H-xanthene-4,5-diyl)bis(methylene) dicarbamimidothioate dihydrobromide] | > 230 °C
30 | N=C(N)SCc1cccc2cc3cccc(CSC(=N)N)c3cc12 (as salt: hydrobromid) [Example 1.9, anthracene-1,8-diylbis(methylene) dicarbamimidothioate dihydrobromide] | > 250 °C
